In assay [1] the target is recombinant human Mcl-1 (residues 171-327) / Bim interaction (Homo sapiens (Human), UniProt Q07820). The assay is described as follows: biochemical. Format: binding. As to conditions: read-out: Mcl-1 HTRF IC50.
Assay [2] has as its system human multiple myeloma cell line, OPM-2. Put plainly: Cell viability assay (OPM-2 10 FBS), CellTiter-Glo. In kind it is cell-based. The essentials:
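OPM-2 cells at 3000 cells/well in RPMI 1640 with 10% FBS were exposed to serially diluted compounds for 16 h at 37 °C, 5% CO2.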

Setting [3] is: read-out: OPM-2 10% FBS IC50 IP, OPM-2 cells, 10% FBS, 16 h, CellTiter-Glo.
The mark [4] stands for this setting: TR-FRET, Mcl-1(171-327) / biotin-Bim (51-76).
The mark [5] stands for this setting: Homo sapiens, OPM-2, 16 h, read-out: OPM-2 10% FBS IC50 IP, OPM-2 cells, 10% FBS, 16 h, CellTiter-Glo.
The mark [6] stands for this setting: 0.1 nM Mcl-1(171-327), 0.05 nM biotin-Bim (51-76).
Where [7] appears, read: Homo sapiens, OPM-2, 16 h, read-out: OPM-2 10% FBS IC50 IP, OPM-2 cells, 10% FBS, 16 h incubation.

Here are results for 16 molecules from patent US10821115B2, “Compounds that inhibit Mcl-1 protein” (priority 2017, dated 2020).

Where two headings read alike, the source gives them in different places.

recombinant human Mcl-1 (residues 171-327) / Bim interaction, sequence (Q07820 171-327): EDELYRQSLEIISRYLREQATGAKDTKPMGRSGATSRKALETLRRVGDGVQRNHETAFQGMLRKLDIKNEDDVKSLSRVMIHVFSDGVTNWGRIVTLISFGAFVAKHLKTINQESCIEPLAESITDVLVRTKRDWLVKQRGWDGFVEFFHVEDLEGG

As to `C=C(C)[C@@H](O)C[C@]1(OC)/C=C/C[C@H](C)[C@@H](C)S(=O)(=O)NC(=O)c2ccc3c(c2)N(C[C@@H]2CC[C@H]21)C[C@@]1(CCCc2cc(Cl)ccc21)CO3` [Example 100471, (1S,3′R,6′R,7′S,8′E,11′S,12′R)-6-chloro-7′-((2S)-2-hydroxy-3-methyl-3-buten-1-yl)-7′-methoxy-11′,12′-dimethyl-3,4-dihydro-2H,15′H-spiro[naphthalene-1,22′-[20]oxa[13]thia[1,14]diazatetracyclo [14.7.2.0~3,6~.0~19,24~]pentacosa[8,16,18,24]tetraen]-15′-one 13′,13′-dioxide], the IC50 in assay [1] was determined as 0.281 nM; in assay [2] (setting [3]), 299 nM.

On to `CC[C@@H]1CCCC[C@@](O)(COC)[C@@H]2CC[C@H]2CN2C[C@@]3(CCCc4cc(Cl)ccc43)COc3ccc(cc32)C(=O)NS1(=O)=O` [Example 100039, (1S,3′R,6′R,7′S,12′R)-6-chloro-12′-ethyl-7′-hydroxy-7′-(methoxymethyl)-3,4-dihydro-2H,15′H-spiro[naphthalene-1,22′-[20]oxa[13]thia[1,14]diazatetracyclo [14.7.2.0~3,6~.0~19,24~]pentacosa[16,18,24]trien]-15′-one 13′,13′-dioxide], for which the values for the IC50 in assay [1] (setting [4]) and in assay [2] (setting [5]) were 0.563 nM and 744 nM, respectively.

`CO[C@]1(CN2CCN3C(=O)[C@@H](C)OC[C@@H]3C2)/C=C/C[C@H](C)[C@@H](C)S(=O)(=O)NC(=O)c2ccc3c(c2)N(C[C@@H]2CC[C@H]21)C[C@@]1(CCCc2cc(Cl)ccc21)CO3` [Example 144, (1S,3′R,6′R,7′R,8′E,11′S,12′R)-6-chloro-7′-methoxy-11′,12′-dimethyl-7′-(((3R,9aS)-3-methyl-4-oxohexahydropyrazino[2,1-c][1,4]oxazin-8(1H)-yl)methyl)-3,4-dihydro-2H,15′H-spiro[naphthalene-1,22′-[20]oxa[13]thia[1,14]diazatetracyclo [14.7.2.0~3,6~.0~19,24~]pentacosa[8,16,18,24]tetraen]-15′-one 13′,13′-dioxide]: the figures for the IC50 in assay [1] (setting [6]) and in assay [2] (setting [7]) were 0.271 nM and 163 nM, respectively.

For `CC[C@@]1(O)CCC[C@H](C)[C@@H](C)S(=O)(=O)NC(=O)c2ccc3c(c2)N(C[C@@H]2CC[C@H]21)C[C@@]1(CCCc2cc(Cl)ccc21)CO3` [Example 100079, (1S,3′R,6′R,7′R,11′S,12′R)-6-chloro-7′-ethyl-7′-hydroxy-11′,12′-dimethyl-3,4-dihydro-2H,15′H-spiro[naphthalene-1,22′-[20]oxa[13]thia[1,14]diazatetracyclo [14.7.2.0~3,6~.0~19,24~]pentacosa[16,18,24]trien]-15′-one 13′,13′-dioxide], the 50% inhibitory concentration (IC50) in assay [1] (setting [4]) was 0.343 nM; in assay [2] (setting [5]), 713 nM.

For the molecule `C[C@@H]1[C@@H](C)CCC[C@@](O)(CC(=O)N2CCCCC2)[C@@H]2CC[C@H]2CN2C[C@@]3(CCCc4cc(Cl)ccc43)COc3ccc(cc32)C(=O)NS1(=O)=O` [Example 100089, (1S,3′R,6′R,7′R,11′S,12′R)-6-chloro-7′-hydroxy-11′,12′-dimethyl-7′-(2-oxo-2-(1-piperidinyl)ethyl)-3,4-dihydro-2H,15′H-spiro[naphthalene-1,22′-[20]oxa[13]thia[1,14]diazatetracyclo [14.7.2.0~3,6~.0~19,24~]pentacosa[16,18,24]trien]-15′-one 13′,13′-dioxide], the half-maximal inhibitory concentration (IC50) in assay [1] (setting [4]) worked out at 0.348 nM; in assay [2] (setting [3]), 325 nM.

Consider `CCN1CCN(C[C@]2(OC)/C=C/C[C@H](C)[C@@H](C)S(=O)(=O)NC(=O)c3ccc4c(c3)N(C[C@@H]3CC[C@H]32)C[C@@]2(CCCc3cc(Cl)ccc32)CO4)CC1` [Example 247, (1S,3′R,6′R,7′S,8′E,11′S,12′R)-6-chloro-7′-((4-ethyl-1-piperazinyl)methyl)-7′-methoxy-11′,12′-dimethyl-3,4-dihydro-2H,15′H-spiro[naphthalene-1,22′-[20]oxa[13]thia[1,14]diazatetracyclo [14.7.2.0~3,6~.0~19,24~]pentacosa[8,16,18,24]tetraen]-15′-one 13′,13′-dioxide], for which the results for the concentration for half-maximal inhibition (IC50) in assay [1] (setting [6]) and in assay [2] (setting [7]) were 0.129 nM and 107 nM, respectively.

As to `CO[C@]1(CN2CCN3CCOC[C@@H]3C2)/C=C/C[C@H](C)[C@@H](C)S(=O)(=O)NC(=O)c2ccc3c(n2)N(C[C@@H]2CC[C@H]21)C[C@@]1(CCCc2cc(Cl)ccc21)CO3` [Example 185, (1S,3′R,6′R,7′R,8′E,11′S,12′R)-6-chloro-7′-((9aS)-hexahydropyrazino[2,1-c][1,4]oxazin-8(1H)-ylmethyl)-7′-methoxy-11′,12′-dimethyl-3,4-dihydro-2H,15′H-spiro[naphthalene-1,22′-[20]oxa[13]thia[1,14,25]triazatetracyclo [14.7.2.0~3,6~.0~19,24~]pentacosa[8,16,18,24]tetraen]-15′-one 13′,13′-dioxide], the half-inhibitory concentration (IC50) was found to be 0.17 nM in assay [1] (setting [6]) and 1060 nM in assay [2] (setting [7]).

`CC[C@]1(OCCN2CCOCC2)/C=C/C[C@H](C)[C@@H](C)S(=O)(=O)NC(=O)c2ccc3c(c2)N(C[C@@H]2CC[C@H]21)C[C@@]1(CCCc2cc(Cl)ccc21)CO3` (single isomer, unassigned) [Example 100481]: the results for the IC50 in assay [1] (setting [4]) and in assay [2] (setting [5]) were 0.094 nM and 152 nM, respectively.

With `CO[C@@]1(CC(=O)[C@H](C)CN(C)C)/C=C/C[C@H](C)[C@@H](C)S(=O)(=O)NC(=O)c2ccc3c(c2)N(C[C@@H]2CC[C@H]21)C[C@@]1(CCCc2cc(Cl)ccc21)CO3` (single isomer, unassigned) [Example 100478], the IC50 came out at 3.47 nM in assay [1] (setting [4]) and 4090 nM in assay [2] (setting [5]).

As for `CCCO[C@]1(CN2CCN3CCOC[C@@H]3C2)/C=C/C[C@H](C)[C@@H](C)S(=O)(=O)NC(=O)c2ccc3c(c2)N(C[C@@H]2CC[C@H]21)C[C@@]1(CCCc2cc(Cl)ccc21)CO3` [Example 351, (1S,3′R,6′R,7′R,8′E,11′S,12′R)-6-chloro-7′-((9aS)-hexahydropyrazino[2,1-c][1,4]oxazin-8(1H)-ylmethyl)-11′,12′-dimethyl-7′-propoxy-3,4-dihydro-2H,15′H-spiro[naphthalene-1,22′-[20]oxa[13]thia[1,14]diazatetracyclo [14.7.2.0~3,6~.0~19,24~]pentacosa[8,16,18,24]tetraen]-15′-one 13′,13′-dioxide], the 50% inhibitory concentration (IC50) in assay [1] (setting [6]) was 0.121 nM; in assay [2] (setting [7]), 196 nM.

Regarding `C[C@@H]1[C@@H](C)C/C=C/[C@@](O)(c2cncc(-c3ccccc3)c2)[C@@H]2CC[C@H]2CN2C[C@@]3(CCCc4cc(Cl)ccc43)COc3ccc(cc32)C(=O)NS1(=O)=O` (single isomer, unassigned) [Example 100534], the half-maximal inhibitory concentration (IC50) was determined as 0.799 nM in assay [1] (setting [4]) and 542 nM in assay [2] (setting [5]).

With `C[C@@H]1[C@@H](C)CCC[C@](C)(CN2CCN3CCOC[C@@H]3C2)[C@@H]2CC[C@H]2CN2C[C@@]3(CCCc4cc(Cl)ccc43)COc3ccc(cc32)C(=O)NS1(=O)=O` [Example 100300, (1S,3′R,6′R,7′S,11′S,12′R)-6-chloro-7′-((9aS)-hexahydropyrazino[2,1-c][1,4]oxazin-8(1H)-ylmethyl)-7′,11′,12′-trimethyl-3,4-dihydro-2H,15′H-spiro[naphthalene-1,22′-[20]oxa[13]thia[1,14]diazatetracyclo [14.7.2.0~3,6~.0~19,24~]pentacosa[16,18,24]trien]-15′-one 13′,13′-dioxide], the results for the 50% inhibitory concentration (IC50) in assay [1] (setting [4]) and in assay [2] (setting [5]) were 0.109 nM and 235 nM, respectively.

As for `C[C@@H]1[C@@H](C)C/C=C/[C@@](C)(O)[C@@H]2CC[C@H]2CN2C[C@@]3(CCCc4cc(Cl)ccc43)COc3ccc(nc32)C(=O)NS1(=O)=O` (single isomer, unassigned) [Example 100601], the IC50 in assay [1] (setting [4]) was 0.114 nM; in assay [2] (setting [5]), 239 nM.

With `COC[C@@H]1[C@@H](C)C/C=C/[C@@](CN2CCN(C3COC3)CC2)(OC)[C@@H]2CC[C@H]2CN2C[C@@]3(CCCc4cc(Cl)ccc43)COc3ccc(cc32)C(=O)NS1(=O)=O` [Example 167, (1S,3′R,6′R,7′R,8′E,11′S,12′S)-6-chloro-7′-methoxy-12′-(methoxymethyl)-11′-methyl-7′-((4-(3-oxetanyl)-1-piperazinyl)methyl)-3,4-dihydro-2H,15′H-spiro[naphthalene-1,22′-[20]oxa[13]thia[1,14]diazatetracyclo [14.7.2.0~3,6~.0~19,24~]pentacosa[8,16,18,24]tetraen]-15′-one 13′,13′-dioxide], the IC50 in assay [1] (setting [6]) was 0.086 nM; in assay [2] (setting [7]), 52 nM.

As to `CO[C@]1(CN2CCN(CC(C)(C)C)CC2)/C=C/C[C@H](C)[C@@H](C)S(=O)(=O)NC(=O)c2ccc3c(c2)N(C[C@@H]2CC[C@H]21)C[C@@]1(CCCc2cc(Cl)ccc21)CO3` [Example 153, (1S,3′R,6′R,7′R,8′E,11′S,12′R)-6-chloro-7′-((4-(2,2-dimethylpropyl)-1-piperazinyl)methyl)-7′-methoxy-11′,12′-dimethyl-3,4-dihydro-2H,15′H-spiro[naphthalene-1,22′-[20]oxa[13]thia[1,14]diazatetracyclo [14.7.2.0~3,6~.0~19,24~]pentacosa[8,16,18,24]tetraen]-15′-one 13′,13′-dioxide], the IC50 was found to be 0.96 nM in assay [1] (setting [6]) and 10800 nM in assay [2] (setting [7]).

Turning to `CCO[C@]1(CN2CCN(C3COC3)CC2)/C=C/C[C@H](C)[C@@H](COC)S(=O)(=O)NC(=O)c2ccc3c(c2)N(C[C@@H]2CC[C@H]21)C[C@@]1(CCCc2cc(Cl)ccc21)CO3` [Example 175], the half-inhibitory concentration (IC50) in assay [1] (setting [6]) was 0.069 nM; in assay [2] (setting [7]), 64 nM.
